Test results from patent publication US20250084095A1, “Aminopyrimidine Derivatives as Cyclin-Dependent Kinase Inhibitors” (Accutar Biotechnology Inc., priority 2023, published 2025).
pIC50: −log10 of the molar value.

What was measured:
[1] = test system: Phospho-Rb (Ser807/811) in SW1573-CDK4 KO cells; test: Phospho-Rb expression inhibition in SW1573-CDK4 KO cells quantified by in cell Western; format: cell-based; conditions: Homo sapiens, 24 hours, read-out: SW1573 CDK4 KO pRb IC50
Procedure: (§1) Parental SW1573 cells were obtained from the American Type Culture Collection (ATCC). CDK4 or CDK6 gene in […] cells was knocked out using the CRISPR-Cas9 technology. First, gRNA complex of CDK4 or CDK6 was prepared with Alt-R CRISPR-Cas9 tracrRNA and crRNA CDK4 (5′-[…]-3′ (SEQ ID NO: 4)) or CDK6 (5′-[…]-3′ (SEQ ID NO. 5)) (IDT-Integrated DNA Technologies), and then ribonucleoprotein (RNP) complex of CDK4 or CDK6 was prepared with respective gRNA complex and Alt-R S.p. Cas9 Nuclease V3 (IDT-Integrated DNA Technologies). Next, 5×10^4/10 μL SWJ1573 cells were electroporated with the CDK4 or CDK6 RNP complex and Alt-R Cas9 Electroporation Enhancer using Neon Transfection System (Thermo Fisher). Cells were then plated in a 96-well plate to select single clones for validation of CDK4 or CDK6 knockout by western blot analysis.
(§2) MCF7 cells were obtained from American Type Culture Collection (ATCC, HTB-22). SW1573-CDK6 KO and SW1573-CDK4 KO cells were generated by the CRISPR-Cas9 technology. All cells were plated in 96-well plates (VWR #10062-900, or Corning #3904) in 90 uL culture medium at a density of 20,000 cells/well in the respective growth medium containing 10% FBS and 1% Penicillin Streptomycin, and then incubated at 37° C. overnight. The following day, the test compound was administered to the cells by using 1000× compound stock solution prepared in DMSO at various concentrations. 1000× compound stock solution was first diluted in culturing medium to 10×, then 10 uL compound medium was added to each well in the cell plates. After administration of the compound, the cells were then incubated at 37° C. for 24 hours. Upon completion, the cells were washed with PBS briefly. 150 uL/well of 4% formaldehyde was added and the plates were incubated at room temperature for 20 mins. The cells were washed with PBS briefly, and permeabilized with 150 uL/well of ice cold 100% methanol for 10 mins. The cells were washed with PBS briefly and blocked with 100 uL/well LI-COR blocking buffer for 1 hr at room temperature with gentle shaking. The cells were incubated overnight at 4° C. with 50 uL primary antibody rabbit anti-Phospho-Rb (Ser807/811) (1: 500, Cell Signaling, #8516) and anti-Rb (1:200, Santa Cruz, sc-73598) diluted in Intercept Blocking Buffer (LI-COR, #927-60001) containing 0.1% Tween 20. The next day, the cells were washed with 200 uL PBS containing 0.1% Tween 20, 5×5 mins at room temperature with gentle shaking, and incubated with 50 uL secondary antibody, IRDye® 800CW Goat anti-Rabbit IgG (1:1000, LI-COR, #926-32211) and IRDye®680RD Goat anti-Mouse IgG (1:1000, LI-COR, #926-68070), in LI-COR blocking buffer with 0.2% Tween 20 for 1 hr at room temperature with gentle shaking. The cells were washed with 200 uL PBS containing 0.1% Tween 20, 5×5 mins at room temperature with gentle shaking. The cells were washed with PBS for 5 mins. 100 uL fresh PBS was added to each well and the plates were imaged on a LI-COR Odyssey CLX plate reader.

[2] = test system: Phospho-Rb (Ser807/811) in SW1573-CDK6 KO cells; test: Phospho-Rb expression inhibition in SW1573-CDK6 KO cells quantified by in cell Western; format: cell-based; conditions: Homo sapiens, 24 hours, read-out: SW1573 CDK6 KO pRb IC50
Procedure: as §1, §2

pIC50 [1] | pIC50 [2] | Compound
< 6.00 | 6.00 to 6.82 | Cc1c(C)n(C(C)C)c2cc(-c3nc(N[C@@H]4C[C@H]5CO[C@H](O5)[C@H]4O)ncc3Cl)ccc2c1=O [Compound 191, 7-(5-chloro-2-(((1S,3R,4S,5R)-4-hydroxy-6,8-dioxabicyclo[3.2.1]octan-3-yl)amino)pyrimidin-4-yl)-1-isopropyl-2,3-dimethylquinolin-4(1H)-one]
< 6.00 | 6.82 to 7.40 | CC(C)n1c(CN2[C@@H](C)COC[C@@H]2C)cc(=O)c2ccc(-c3nc(N[C@@H]4C[C@H]5CO[C@H](O5)[C@H]4O)ncc3Cl)cc21 [Compound 205, 7-(5-chloro-2-(((1S,3R,4S,5R)-4-hydroxy-6,8-dioxabicyclo[3.2.1]octan-3-yl)amino)pyrimidin-4-yl)-2-(((3S,5S)-3,5-dimethylmorpholino)methyl)-1-isopropylquinolin-4(1H)-one]
< 6.00 | 6.82 to 7.40 | CC(C)n1c([C@@H]2CCOC2)nc2c(F)cc(-c3nc(N[C@@H]4C[C@H]5CO[C@H](O5)[C@H]4O)ncc3Cl)cc21 [Compound 268, (1S,3R,4S,5R)-3-((5-chloro-4-(4-fluoro-1-isopropyl-2-((S)-tetrahydrofuran-3-yl)-1H-benzo[d]imidazol-6-yl)pyrimidin-2-yl)amino)-6,8-dioxabicyclo[3.2.1]octan-4-ol]
< 6.00 | ≥ 7.40 | Cc1c(C(C)(C)O)cnc2c(F)cc(-c3nc(N[C@@H]4C[C@H]5CO[C@H](O5)[C@H]4O)ncc3F)cc12 [Compound 256, (1S,3R,4S,5R)-3-((5-fluoro-4-(8-fluoro-3-(2-hydroxypropan-2-yl)-4-methylquinolin-6-yl)pyrimidin-2-yl)amino)-6,8-dioxabicyclo[3.2.1]octan-4-ol]
6.00 to 6.82 | ≥ 7.40 | Cc1c(C(C)(C)O)cnc2c(F)cc(-c3nc(N[C@@H]4C[C@H]5CO[C@H](O5)[C@H]4O)ncc3Cl)cc12 [Compound 257, (1S,3R,4S,5R)-3-((5-chloro-4-(8-fluoro-3-(2-hydroxypropan-2-yl)-4-methylquinolin-6-yl)pyrimidin-2-yl)amino)-6,8-dioxabicyclo[3.2.1]octan-4-ol]
6.82 to 7.40 | ≥ 7.40 | Cc1c(-c2nc(N[C@@H]3C[C@H]4CO[C@H](O4)[C@H]3O)ncc2Cl)sc2c(C(C)C)cn(C)c(=O)c12 [Compound 223, 2-(5-chloro-2-(((1S,3R,4S,5R)-4-hydroxy-6,8-dioxabicyclo[3.2.1]octan-3-yl)amino)pyrimidin-4-yl)-7-isopropyl-3,5-dimethylthieno[3,2-c]pyridin-4(5H)-one]
< 6.00 | 6.82 to 7.40 | CC(C)n1c(CN2CC[C@@H](F)C2)c(F)c(=O)c2ccc(-c3nc(N[C@@H]4C[C@H]5CO[C@H](O5)[C@H]4O)ncc3F)cc21 [Compound 202, 3-fluoro-7-(5-fluoro-2-(((1S,3R,4S,5R)-4-hydroxy-6,8-dioxabicyclo[3.2.1]octan-3-yl)amino)pyrimidin-4-yl)-2-(((R)-3-fluoropyrrolidin-1-yl)methyl)-1-isopropylquinolin-4(1H)-one]

The remaining lines, values behind:

Compound | pIC50 [1] | pIC50 [2]
COC(=O)N1CC[C@@H](c2nc3c(F)cc(-c4nc(N[C@@H]5C[C@H]6CO[C@H](O6)[C@H]5O)ncc4F)cc3n2C(C)C)C1 [Compound 265, methyl (R)-3-(4-fluoro-6-(5-fluoro-2-(((1S,3R,4S,5R)-4-hydroxy-6,8-dioxabicyclo[3.2.1]octan-3-yl)amino)pyrimidin-4-yl)-1-isopropyl-1H-benzo[d]imidazol-2-yl)pyrrolidine-1-carboxylate] | < 6.00 | 6.82 to 7.40
CC(C)n1c(CN2[C@@H](C)COC[C@@H]2C)c(F)c(=O)c2ccc(-c3nc(N[C@@H]4C[C@H]5CO[C@H](O5)[C@H]4O)ncc3Cl)cc21 [Compound 201, 7-(5-chloro-2-(((1S,3R,4S,5R)-4-hydroxy-6,8-dioxabicyclo[3.2.1]octan-3-yl)amino)pyrimidin-4-yl)-2-(((3S,5S)-3,5-dimethylmorpholino)methyl)-3-fluoro-1-isopropylquinolin-4(1H)-one] | < 6.00 | 6.82 to 7.40
Cc1c(CN2CCC2)n(C(C)C)c2cc(-c3nc(N[C@@H]4C[C@H]5CO[C@H](O5)[C@H]4O)ncc3F)ccc2c1=O [Compound 196, 2-(azetidin-1-ylmethyl)-7-(5-fluoro-2-(((1S,3R,4S,5R)-4-hydroxy-6,8-dioxabicyclo[3.2.1]octan-3-yl)amino)pyrimidin-4-yl)-1-isopropyl-3-methylquinolin-4(1H)-one] | < 6.00 | 6.82 to 7.40
CC(C)(O)c1cnc2c(F)cc(-c3nc(N[C@@H]4C[C@H]5CO[C@H](O5)[C@H]4O)ncc3Cl)cc2c1Cl [Compound 252, (1S,3R,4S,5R)-3-((5-chloro-4-(4-chloro-8-fluoro-3-(2-hydroxypropan-2-yl)quinolin-6-yl)pyrimidin-2-yl)amino)-6,8-dioxabicyclo[3.2.1]octan-4-ol] | 6.00 to 6.82 | ≥ 7.40
CC(C)(O)c1cnc2c(F)cc(-c3nc(N[C@@H]4C[C@H]5CO[C@H](O5)[C@H]4O)ncc3F)cc2c1Cl [Compound 255, (1S,3R,4S,5R)-3-((4-(4-chloro-8-fluoro-3-(2-hydroxypropan-2-yl)quinolin-6-yl)-5-fluoropyrimidin-2-yl)amino)-6,8-dioxabicyclo[3.2.1]octan-4-ol] | < 6.00 | ≥ 7.40
Cc1c(CN(C)C)n(C(C)C)c2cc(-c3nc(N[C@@H]4C[C@H]5CO[C@H](O5)[C@H]4O)ncc3F)ccc2c1=O [Compound 195, 2-((dimethylamino)methyl)-7-(5-fluoro-2-(((1S,3R,4S,5R)-4-hydroxy-6,8-dioxabicyclo [3.2.1]octan-3-yl)amino)pyrimidin-4-yl)-1-isopropyl-3-methylquinolin-4(1H)-one] | < 6.00 | ≥ 7.40
Cc1c(CN2[C@@H](C)COC[C@@H]2C)n(C(C)C)c2cc(-c3nc(N[C@@H]4C[C@H]5CO[C@H](O5)[C@H]4O)ncc3F)ccc2c1=O [Compound 199, 2-(((3S,5S)-3,5-dimethylmorpholino)methyl)-7-(5-fluoro-2-(((1S,3R,4S,5R)-4-hydroxy-6,8-dioxabicyclo[3.2.1]octan-3-yl)amino)pyrimidin-4-yl)-1-isopropyl-3-methylquinolin-4(1H)-one] | 6.00 to 6.82 | ≥ 7.40
CC(C)n1c(C(C)(C)O)nc2c(F)cc(-c3nc(N[C@@H]4C[C@H]5CO[C@H](O5)[C@H]4O)ncc3Cl)cc21 [Compound 1, (1S,3R,4S,5R)-3-((5-chloro-4-(4-fluoro-2-(2-hydroxypropan-2-yl)-1-isopropyl-1H-benzo[d]imidazol-6-yl)pyrimidin-2-yl)amino)-6,8-dioxabicyclo[3.2.1]octan-4-ol] | < 6.00 | ≥ 7.40
CC(C)n1c(N2C(=O)OC[C@@H]2C)nc2c(F)cc(-c3nc(N[C@@H]4C[C@H]5CO[C@H](O5)[C@H]4O)ncc3Cl)cc21 [Compound 298, (S)-3-(6-(5-chloro-2-(((1S,3R,4S,5R)-4-hydroxy-6,8-dioxabicyclo[3.2.1]octan-3-yl)amino)pyrimidin-4-yl)-4-fluoro-1-isopropyl-1H-benzo[d]imidazol-2-yl)-4-methyloxazolidin-2-one] | < 6.00 | 6.82 to 7.40
CC(C)n1c(CN2[C@@H](C)COC[C@@H]2C)c(C(F)F)c(=O)c2ccc(-c3nc(N[C@@H]4C[C@H]5CO[C@H](O5)[C@H]4O)ncc3Cl)cc21 [Compound 204, 7-(5-chloro-2-(((1S,3R,4S,5R)-4-hydroxy-6,8-dioxabicyclo[3.2.1]octan-3-yl)amino)pyrimidin-4-yl)-3-(difluoromethyl)-2-(((3S,5S)-3,5-dimethylmorpholino)methyl)-1-isopropylquinolin-4(1H)-one] | < 6.00 | 6.82 to 7.40
